Test results published in ChEMBL document CHEMBL1201862, “PubChem BioAssay data set” (2004).
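How tested: cells in 96-well plates exposed to compound for 48 hours at five concentrations. Abbreviation: GI50, concentration required for 50% inhibition of growth.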 Activity calls are given as the source filed them. No stated cut-off is given here; in the data, active = GI50 up to about 1.1 µM and inactive = higher.

Experiments:
Experiment in all cases: DTP human tumour cell line panel, 48 h
OVCAR-4 = test system: OVCAR-4
HL-60 = test system: HL-60
LXFL 529 = test system: LXFL 529
NCI-H522 = test system: NCI-H522
SN12C = test system: SN12C
M14 = test system: M14
ACHN = test system: ACHN
HCT-116 = test system: HCT-116
A498 = test system: A498
HCT-15 = test system: HCT-15
UACC-62 = test system: UACC-62
SF-268 = test system: SF-268
MOLT-4 = test system: MOLT-4
OVCAR-5 = test system: OVCAR-5
EKVX = test system: EKVX
OVCAR-3 = test system: OVCAR-3
SF-539 = test system: SF-539
SK-MEL-5 = test system: SK-MEL-5
SW-620 = test system: SW-620
TK-10 = test system: TK-10
COLO 205 = test system: COLO 205
HOP-92 = test system: HOP-92
LOX IMVI = test system: LOX IMVI
NCI-H23 = test system: NCI-H23
RPMI-8226 = test system: RPMI-8226
A549 = test system: A549
HOP-18 = test system: HOP-18
SK-MEL-2 = test system: SK-MEL-2
UACC-257 = test system: UACC-257
KM12 = test system: KM12
M19-MEL = test system: M19-MEL
Malme-3M = test system: Malme-3M
SNB-75 = test system: SNB-75
DMS-273 = test system: DMS-273
HT-29 = test system: HT-29
SK-MEL-28 = test system: SK-MEL-28
UO-31 = test system: UO-31
NCI-H460 = test system: NCI-H460
IGROV-1 = test system: IGROV-1
KM-20L2 = test system: KM-20L2
HOP-62 = test system: HOP-62
SF-295 = test system: SF-295
SK-OV-3 = test system: SK-OV-3
U-251 = test system: U-251
CCRF-CEM = test system: CCRF-CEM
DMS-114 = test system: DMS-114
CAKI-1 = test system: CAKI-1
DLD-1 = test system: DLD-1
786-0 = test system: 786-0
SNB-78 = test system: SNB-78
HCC 2998 = test system: HCC 2998
OVCAR-8 = test system: OVCAR-8
SNB-19 = test system: SNB-19
NCI-H226 = test system: NCI-H226
K562 = test system: K562
SR = test system: SR

Cc1c2cc[n+](C)cc2c(C)c2c1[nH]c1ccc(OC(C)C)cc12
GI50 (OVCAR-4): 3.85 µM (inactive) | GI50 (HL-60): 2.43 µM (inactive) | GI50 (LXFL 529): 0.875 µM (active) | GI50 (NCI-H522): 1.98 µM (inactive) | GI50 (SN12C): 0.542 µM (active) | GI50 (M14): 10.4 µM (inactive) | GI50 (ACHN): 16.1 µM (inactive) | GI50 (HCT-116): 3.77 µM (inactive) | GI50 (A498): 12 µM (inactive) | GI50 (HCT-15): > 58.2 µM | GI50 (UACC-62): 2.71 µM (inactive) | GI50 (SF-268): 0.418 µM (active) | GI50 (MOLT-4): 5.18 µM (inactive) | GI50 (OVCAR-5): 12.9 µM (inactive) | GI50 (EKVX): 5.06 µM (inactive) | GI50 (OVCAR-3): 3.1 µM (inactive) | GI50 (SF-539): 1.01 µM (active) | GI50 (SK-MEL-5): 1.48 µM (inactive) | GI50 (SW-620): 3.12 µM (inactive) | GI50 (TK-10): 39.3 µM (inactive) | GI50 (COLO 205): 1.39 µM (inactive) | GI50 (HOP-92): 3.01 µM (inactive) | GI50 (LOX IMVI): 6.95 µM (inactive) | GI50 (NCI-H23): 2.51 µM (inactive) | GI50 (RPMI-8226): 7.74 µM (inactive) | GI50 (A549): 3.44 µM (inactive) | GI50 (HOP-18): 3.75 µM (inactive) | GI50 (SK-MEL-2): 2.56 µM (inactive) | GI50 (UACC-257): 2.82 µM (inactive) | GI50 (KM12): 2.75 µM (inactive) | GI50 (M19-MEL): 2.09 µM (inactive) | GI50 (Malme-3M): 1.97 µM (inactive) | GI50 (SNB-75): 0.384 µM (active) | GI50 (DMS-273): 2.69 µM (inactive) | GI50 (HT-29): 4.25 µM (inactive) | GI50 (SK-MEL-28): 4.42 µM (inactive) | GI50 (UO-31): 27.3 µM (inactive) | GI50 (NCI-H460): 2.6 µM (inactive) | GI50 (IGROV-1): 2.55 µM (inactive) | GI50 (KM-20L2): 4.72 µM (inactive)

COS(=O)(=O)OCCC(NC(=O)OCc1ccccc1)C(=O)OCc1ccccc1 (centres undefined)
GI50 (OVCAR-4): > 100 µM (inactive) | GI50 (HL-60): 53.3 µM (inactive) | GI50 (LXFL 529): > 100 µM (inactive) | GI50 (HOP-62): > 100 µM (inactive) | GI50 (SF-295): > 100 µM (inactive) | GI50 (NCI-H522): > 100 µM (inactive) | GI50 (SK-OV-3): > 100 µM (inactive) | GI50 (U-251): > 100 µM (inactive) | GI50 (SN12C): > 100 µM (inactive) | GI50 (M14): > 100 µM (inactive) | GI50 (CCRF-CEM): > 100 µM (inactive) | GI50 (ACHN): > 100 µM (inactive) | GI50 (HCT-116): > 100 µM (inactive) | GI50 (A498): > 100 µM (inactive) | GI50 (HCT-15): > 100 µM | GI50 (UACC-62): > 100 µM (inactive) | GI50 (DMS-114): > 100 µM (inactive) | GI50 (CAKI-1): > 100 µM (inactive) | GI50 (SF-268): > 100 µM (inactive) | GI50 (MOLT-4): > 100 µM (inactive) | GI50 (DLD-1): > 100 µM (inactive) | GI50 (OVCAR-5): > 100 µM (inactive) | GI50 (EKVX): > 100 µM (inactive) | GI50 (OVCAR-3): > 100 µM (inactive) | GI50 (786-0): > 100 µM (inactive) | GI50 (SF-539): > 100 µM (inactive) | GI50 (SK-MEL-5): > 100 µM (inactive) | GI50 (SW-620): > 100 µM (inactive) | GI50 (TK-10): > 100 µM (inactive) | GI50 (COLO 205): > 100 µM (inactive) | GI50 (HOP-92): > 100 µM (inactive) | GI50 (LOX IMVI): > 100 µM (inactive) | GI50 (NCI-H23): > 100 µM (inactive) | GI50 (RPMI-8226): > 100 µM (inactive) | GI50 (A549): > 100 µM (inactive) | GI50 (HOP-18): > 100 µM (inactive) | GI50 (SK-MEL-2): > 100 µM (inactive) | GI50 (SNB-78): > 100 µM (inactive) | GI50 (UACC-257): > 100 µM (inactive) | GI50 (HCC 2998): 66.4 µM (inactive) | GI50 (KM12): > 100 µM (inactive) | GI50 (M19-MEL): > 100 µM (inactive) | GI50 (OVCAR-8): > 100 µM (inactive) | GI50 (Malme-3M): > 100 µM (inactive) | GI50 (SNB-19): > 100 µM (inactive) | GI50 (SNB-75): 71.6 µM (inactive) | GI50 (DMS-273): > 100 µM (inactive) | GI50 (HT-29): 59.2 µM (inactive) | GI50 (SK-MEL-28): > 100 µM (inactive) | GI50 (UO-31): > 100 µM (inactive) | GI50 (NCI-H226): > 100 µM (inactive) | GI50 (NCI-H460): > 100 µM (inactive) | GI50 (IGROV-1): > 100 µM (inactive) | GI50 (K562): > 100 µM (inactive) | GI50 (KM-20L2): > 100 µM (inactive)

CC(C)CC(NC(=O)c1cccc(O)c1O)C(=O)NCc1cc(CNC(=O)C(CC(C)C)NC(=O)c2cccc(O)c2O)cc(CNC(=O)C(CC(C)C)NC(=O)c2cccc(O)c2O)c1 (centres undefined)
GI50 (OVCAR-4): 13.9 µM (inactive) | GI50 (HL-60): 4.34 µM (inactive) | GI50 (LXFL 529): 2.82 µM (inactive) | GI50 (HOP-62): 15 µM (inactive) | GI50 (SF-295): 15.5 µM (inactive) | GI50 (NCI-H522): 3.92 µM (inactive) | GI50 (SK-OV-3): 9.44 µM (inactive) | GI50 (U-251): 11.1 µM (inactive) | GI50 (SN12C): 12.8 µM (inactive) | GI50 (CCRF-CEM): 4.91 µM (inactive) | GI50 (ACHN): 22.2 µM (inactive) | GI50 (HCT-116): 15.9 µM (inactive) | GI50 (A498): 24.8 µM (inactive) | GI50 (HCT-15): 23.1 µM | GI50 (UACC-62): 4.49 µM (inactive) | GI50 (DMS-114): 5.13 µM (inactive) | GI50 (CAKI-1): 46.3 µM (inactive) | GI50 (SF-268): 8.13 µM (inactive) | GI50 (MOLT-4): 11.4 µM (inactive) | GI50 (DLD-1): 20.9 µM (inactive) | GI50 (OVCAR-5): 10.8 µM (inactive) | GI50 (EKVX): 12.6 µM (inactive) | GI50 (OVCAR-3): 4.33 µM (inactive) | GI50 (786-0): 42 µM (inactive) | GI50 (SF-539): 5.47 µM (inactive) | GI50 (SK-MEL-5): 12.8 µM (inactive) | GI50 (SW-620): 17.2 µM (inactive) | GI50 (TK-10): 16.2 µM (inactive) | GI50 (COLO 205): 16.6 µM (inactive) | GI50 (HOP-92): 14.6 µM (inactive) | GI50 (SR): 8.36 µM (inactive) | GI50 (LOX IMVI): 8.63 µM (inactive) | GI50 (NCI-H23): 15.6 µM (inactive) | GI50 (RPMI-8226): 4.14 µM (inactive) | GI50 (A549): 18.6 µM (inactive) | GI50 (HOP-18): 24 µM (inactive) | GI50 (SK-MEL-2): 7.05 µM (inactive) | GI50 (SNB-78): 29.1 µM (inactive) | GI50 (UACC-257): 20.1 µM (inactive) | GI50 (HCC 2998): 7.8 µM (inactive) | GI50 (KM12): 13.8 µM (inactive) | GI50 (OVCAR-8): 40.6 µM (inactive) | GI50 (Malme-3M): 19.6 µM (inactive) | GI50 (SNB-19): 13.6 µM (inactive) | GI50 (SNB-75): 20.6 µM (inactive) | GI50 (DMS-273): 15.6 µM (inactive) | GI50 (HT-29): 13.3 µM (inactive) | GI50 (SK-MEL-28): 13.7 µM (inactive) | GI50 (UO-31): 12.3 µM (inactive) | GI50 (NCI-H226): 14.7 µM (inactive) | GI50 (NCI-H460): 14 µM (inactive) | GI50 (IGROV-1): 5.66 µM (inactive) | GI50 (K562): 18.9 µM (inactive) | GI50 (KM-20L2): 7.11 µM (inactive)
